#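 Protocol summary: plate cells (96-well), add compound at 5 concentrations, incubate 48 h, interpolate endpoints linearly. GI50 is the concentration that inhibits growth by half.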 Calls of active or inactive are those of the source. No stated cut-off is given here; in the data, active = GI50 up to about 1.1 µM and inactive = higher.
# Columns and labels:
# Assay in all cases: NCI-60 cell line screen, 48 h
# UACC-62 = tested on: UACC-62
# IGROV-1 = tested on: IGROV-1
# SNB-19 = tested on: SNB-19
# HL-60 = tested on: HL-60
# SK-MEL-28 = tested on: SK-MEL-28
# DU-145 = tested on: DU-145
# NCI-H460 = tested on: NCI-H460
# UO-31 = tested on: UO-31
# NCI-H23 = tested on: NCI-H23
# SK-OV-3 = tested on: SK-OV-3
# MDA-MB-231 = tested on: MDA-MB-231
# TK-10 = tested on: TK-10
# U-251 = tested on: U-251
# SK-MEL-5 = tested on: SK-MEL-5
# A549 = tested on: A549
# MCF7 = tested on: MCF7
# OVCAR-5 = tested on: OVCAR-5
# PC-3 = tested on: PC-3
# HCC 2998 = tested on: HCC 2998
# NCI-H522 = tested on: NCI-H522
Compound,GI50 (UACC-62),GI50 (IGROV-1),GI50 (SNB-19),GI50 (HL-60),GI50 (SK-MEL-28),GI50 (DU-145),GI50 (NCI-H460),GI50 (UO-31),GI50 (NCI-H23),GI50 (SK-OV-3),GI50 (MDA-MB-231),GI50 (TK-10),GI50 (U-251),GI50 (SK-MEL-5),GI50 (A549),GI50 (MCF7),GI50 (OVCAR-5),GI50 (PC-3),GI50 (HCC 2998),GI50 (NCI-H522)
CCCCCC(=O)Nc1[nH]nnc1C#N,> 100 µM (inactive),> 100 µM (inactive),> 100 µM (inactive),> 100 µM (inactive),> 100 µM (inactive),> 100 µM (inactive),> 100 µM (inactive),> 100 µM (inactive),> 100 µM (inactive),> 100 µM (inactive),> 100 µM (inactive),> 100 µM (inactive),> 100 µM (inactive),> 100 µM (inactive),> 100 µM (inactive),> 100 µM (inactive),> 100 µM (inactive),> 100 µM (inactive),> 100 µM (inactive),> 100 µM (inactive)
COc1ccc2nc(-c3ccccc3)cc(OCC(=O)O)c2c1,> 100 µM (inactive),> 100 µM (inactive),> 100 µM (inactive),> 100 µM (inactive),> 100 µM (inactive),> 100 µM (inactive),> 100 µM (inactive),25.4 µM (inactive),> 100 µM (inactive),> 100 µM (inactive),> 100 µM (inactive),> 100 µM (inactive),> 100 µM (inactive),> 100 µM (inactive),> 100 µM (inactive),> 100 µM (inactive),> 100 µM (inactive),> 100 µM (inactive),> 100 µM (inactive),> 100 µM (inactive)
CCOC(=O)c1c[nH]c2cc3c(cc2c1=O)CCS3,> 100 µM (inactive),> 100 µM (inactive),> 100 µM (inactive),91 µM (inactive),> 100 µM (inactive),> 100 µM (inactive),> 100 µM (inactive),83.9 µM (inactive),> 100 µM (inactive),> 100 µM (inactive),> 100 µM (inactive),> 100 µM (inactive),> 100 µM (inactive),> 100 µM (inactive),> 100 µM (inactive),> 100 µM (inactive),> 100 µM (inactive),> 100 µM (inactive),> 100 µM (inactive),> 100 µM (inactive)
COc1ccc2nc3ccccc3c(NCCCN(C)CCCl)c2c1,0.23 µM (active),0.328 µM (active),0.601 µM (active),0.0614 µM (active),0.521 µM (active),0.333 µM (active),0.0791 µM (active),0.592 µM (active),0.135 µM (active),0.406 µM (active),0.641 µM (active),0.859 µM (active),0.287 µM (active),0.365 µM (active),0.235 µM (active),0.213 µM (active),0.497 µM (active),0.202 µM (active),0.388 µM (active),0.101 µM (active)
COC(=O)/C=C1/OC(c2ccc(C)cc2C)=CC1=O,10.6 µM (inactive),4.47 µM (inactive),> 10 µM (inactive),2.74 µM (inactive),19.5 µM (inactive),15.5 µM (inactive),19 µM (inactive),16.8 µM (inactive),24.5 µM (inactive),18.7 µM (inactive),14.3 µM (inactive),17.5 µM (inactive),17.4 µM (inactive),16.4 µM (inactive),–,8.26 µM (inactive),15.7 µM (inactive),17.8 µM (inactive),16.7 µM (inactive),14.1 µM (inactive)
COC(=O)NC(Cc1ccccc1)NC(C)=O (stereo unspecified),> 100 µM (inactive),> 100 µM (inactive),> 100 µM (inactive),> 100 µM (inactive),> 100 µM (inactive),> 100 µM (inactive),> 100 µM (inactive),> 100 µM (inactive),> 100 µM (inactive),> 100 µM (inactive),71 µM (inactive),> 100 µM (inactive),> 100 µM (inactive),> 100 µM (inactive),> 100 µM (inactive),> 100 µM (inactive),> 100 µM (inactive),> 100 µM (inactive),> 100 µM (inactive),> 100 µM (inactive)
C[C@@H]1O[C@@H]2OCC[C@@H]2C2=C1C(=O)c1ccccc1C2=O,4.35 µM (inactive),1.98 µM (inactive),18.7 µM (inactive),3.51 µM (inactive),13.9 µM (inactive),9.1 µM (inactive),16.7 µM (inactive),10.8 µM (inactive),4.88 µM (inactive),28.4 µM (inactive),33.7 µM (inactive),19.7 µM (inactive),7.53 µM (inactive),5.94 µM (inactive),19 µM (inactive),1.25 µM (inactive),1.81 µM (inactive),3.65 µM (inactive),17.9 µM (inactive),6.65 µM (inactive)
COC1(OC)N=C(N)C2(C#N)C(C)=C3NCN(C)N=C3C12C#N (stereo unspecified),> 100 µM (inactive),> 100 µM (inactive),> 100 µM (inactive),> 10 µM (inactive),> 100 µM (inactive),> 100 µM (inactive),–,> 100 µM (inactive),> 100 µM (inactive),> 100 µM (inactive),> 100 µM (inactive),> 100 µM (inactive),> 100 µM (inactive),> 100 µM (inactive),> 100 µM (inactive),> 100 µM (inactive),> 100 µM (inactive),> 100 µM (inactive),> 100 µM (inactive),> 100 µM (inactive)
O=C1CCCCC1CN1CCCCC1 (stereo unspecified),> 100 µM (inactive),> 100 µM (inactive),> 100 µM (inactive),> 100 µM (inactive),> 100 µM (inactive),> 100 µM (inactive),> 100 µM (inactive),> 100 µM (inactive),> 100 µM (inactive),> 100 µM (inactive),> 100 µM (inactive),> 100 µM (inactive),> 100 µM (inactive),> 100 µM (inactive),> 100 µM (inactive),> 100 µM (inactive),> 100 µM (inactive),> 100 µM (inactive),> 100 µM (inactive),1.91 µM (inactive)
NC(CS)C(=O)NCCNc1ccc(NCCNC(=O)C(N)CS)c2c1C(=O)c1c(O)ccc(O)c1C2=O (stereo unspecified),0.0223 µM (active),0.219 µM (active),0.0188 µM (active),0.00175 µM (active),0.628 µM (active),0.0261 µM (active),< 0.001 µM (active),0.0313 µM (active),0.0115 µM (active),0.0124 µM (active),0.433 µM (active),0.667 µM (active),0.00579 µM (active),0.0948 µM (active),0.00251 µM (active),0.00402 µM (active),0.481 µM (active),0.126 µM (active),0.225 µM (active),0.0279 µM (active)
COc1ccc(CNc2ccn(C3OC(CO)C(O)C3O)c(=O)n2)cc1 (stereo unspecified),74.5 µM (inactive),> 100 µM (inactive),> 100 µM (inactive),27.2 µM (inactive),> 100 µM (inactive),> 100 µM (inactive),78.7 µM (inactive),81.7 µM (inactive),88.7 µM (inactive),> 100 µM (inactive),> 100 µM (inactive),> 100 µM (inactive),> 100 µM (inactive),62.5 µM (inactive),> 100 µM (inactive),72.9 µM (inactive),> 100 µM (inactive),> 100 µM (inactive),48.8 µM (inactive),70.1 µM (inactive)
CN1CCCCC1CCN1CCCCC1 (stereo unspecified),> 100 µM (inactive),> 100 µM (inactive),> 100 µM (inactive),83 µM (inactive),> 100 µM (inactive),> 100 µM (inactive),> 100 µM (inactive),> 100 µM (inactive),> 100 µM (inactive),> 100 µM (inactive),> 100 µM (inactive),> 100 µM (inactive),> 100 µM (inactive),> 100 µM (inactive),> 100 µM (inactive),> 100 µM (inactive),> 100 µM (inactive),> 100 µM (inactive),> 100 µM (inactive),> 100 µM (inactive)
CC(=O)Nc1nc(C)c(S(=O)(=O)NC(=O)N2c3ccccc3CCc3ccccc32)s1,> 100 µM (inactive),> 100 µM (inactive),29.4 µM (inactive),> 100 µM (inactive),> 100 µM (inactive),> 100 µM (inactive),> 100 µM (inactive),> 100 µM (inactive),> 100 µM (inactive),> 100 µM (inactive),> 100 µM (inactive),> 100 µM (inactive),> 100 µM (inactive),> 100 µM (inactive),> 100 µM (inactive),> 100 µM (inactive),> 100 µM (inactive),> 100 µM (inactive),> 100 µM (inactive),> 100 µM (inactive)
CCc1n[nH]c(=O)[nH]1,> 100 µM (inactive),> 100 µM (inactive),> 100 µM (inactive),> 10 µM (inactive),–,> 100 µM (inactive),> 100 µM (inactive),> 100 µM (inactive),> 100 µM (inactive),> 100 µM (inactive),> 100 µM (inactive),> 100 µM (inactive),–,> 100 µM (inactive),> 100 µM (inactive),> 100 µM (inactive),> 100 µM (inactive),> 100 µM (inactive),> 100 µM (inactive),> 100 µM (inactive)

# — ChEMBL document CHEMBL1201862, “PubChem BioAssay data set” (2004)
